Consider three molecules from patent US8790719B2, “Phytocannabinoids in the treatment of cancer” (GW Pharma Limited, priority 2010, dated 2014).

In series [1] the test system is MDA-MB-231 breast cancer cell line. The series can be described thus: Cell viability of breast cancer cells (Alamar blue assay). Format: cell-based. As to conditions: Homo sapiens, 72 hours. As to the method:
Cells were seeded in presence of FBS in 6 wells multiwell and treated with increased concentrations of compounds for 72 hours. Cell viability was assessed by Alamar blue staining.
Isolated phytocannabinoids were tested on the MDA-MB-231 breast cancer cell line in order to determine whether phytocannabinoids were effective in other types of cancer other than prostate cancer. The different isolated phytocannabinoids chosen for this experiment were: CBGA, CBDA, CBDV, CBD, THCV and THC.
(In general: Resazurin is reduced to fluorescent resorufin, in cell work by metabolically active cells.)

The subject of series [2] is U87 glioma cells. The series can be described thus: Viability of U87 glioma cells (MTT assay), THC, CBD, TMZ alone and combined. Format: cell-based, human. In general terms: Tetrazolium assays rely on reduction of a dye to a coloured formazan, in cell work by metabolically active cells.
Series [3] has as its system human glioma xenograft tumours. The series can be described thus: Human glioma xenograft tumour volume. On the set-up: unit not given here. Format: in vivo. As to the method: The phytocannabinoids were also tested with the TMZ as is detailed in Table 13.2 below.
On the technique in general: A xenograft is tissue or cells of one species grown in another, often human tumour cells in immunodeficient mice.

The subject of series [4] is recurrent glioblastoma multiforme. As to conditions: nine patients, THC intra-tumourally; 95% confidence interval: 15-33; cited from earlier work.
Series [5] deals with T1, GPR55 (Homo sapiens, UniProt Q9Y2T6).
T1 construct: expressed in transfected cells; host or cells: HEK cells (GPR55-HEK)
The series can be described thus: ERK Alphascreen assay using GPR55-HEK cells. Type of series: cell-based. The text has this: An ERK Alphascreen assay was undertaken using GPR55-HEK cells.

The test system of series [6] is DU-145. The series can be described thus: Cell vitality (MTT assay), DU-145. Format: cell-based. The following applies: Homo sapiens, read-out: IC50 on cell vitality. The method, then: (§1) Cells were seeded in presence of FBS in 6 wells multiwell with a density of 8×10^4 cells/well (DU-145) or 1×10^5 cells/well (LNCaP). After 7 hours, cells were starved of dihydrotestosterone (DHT) for 15 hours and treated with increased concentrations of compounds for 24 or 48 hours (absence of serum was maintained during the treatments). Cell viability was assessed by MTT staining.
(§2) Phytocannabinoid BDS and their respective isolated phytocannabinoids were tested in both the hormone-insensitive (DU-145) prostate cancer cells and hormone-sensitive (LNCaP) prostate cancer cells. Three different phytocannabinoids were chosen for this experiment: CBG BDS and isolated compound, CBC BDS and isolated compound and CBD BDS and isolated compound.
(§3) The experiment was repeated in the hormone-insensitive (DU-145) prostate cancer cells and hormone-sensitive (LNCaP) prostate cancer cells that had not been starved of DHT. Here just the CBG BDS and isolated CBG are illustrated in Table 7.2 below.

Series [7] deals with LNCaP. The series can be described thus: Cell vitality (MTT assay), LNCaP. The following applies: Homo sapiens, read-out: IC50 on cell vitality. Format: cell-based. As to the method:
as §1, §2, §3

The subject of series [8] is Aberrant crypt focus (ACF), polyps and tumours. The series can be described thus: Colon carcinogenesis in the mouse induced by azoxymethane. Format: in vivo. The following applies: i.p. three times per week for three months; FIG. 5 c), FIG. 6 c). The text has this:
Aberrant crypt focus (ACF), polyps and tumours were induced in the mouse by the carcinogenic substance azoxymethane. The phytocannabinoids were given (i.p.) to the mice three times per week for a period of three months. The COX-2 inhibitor celecoxib was used as a positive control.

The subject of series [9] is Glioma cells. The series can be described thus: Human glioma cell vitality (MTT assay). Type of series: cell-based. The following applies: read-out: IC50 on glioma cell vitality. As to the method:
Cells were seeded in presence of FBS in 6 wells multiwell with a density of 8×10^4 cells/well. Glioma cells were treated with increased concentrations of compounds and cell viability was assessed by MTT staining.
CBD BDS and isolated CBD, CBG and CBDV were tested.

The test system of series [10] is subcutaneously implanted U87 human glioma cells. As to conditions: s.c., 0.5 mg/mouse; cited from earlier work.
The subject of series [11] is hormone-sensitive prostate cancer cell line (LNCaP). The series can be described thus: Subcutaneous xenograft model, hormone-sensitive prostate cancer (LNCaP). Format: in vivo, mice. The following applies: taxotere 5 mg/kg i.v. weekly, alone. As to the method:
Cancer cells were maintained in vitro in an appropriate culture medium and were harvested, washed in culture medium and re-suspended in matrigel for ready for in vivo administration. 1-2×10^7 cells in 200 μl were injected subcutaneously into the left flank of mice. The mice were anaesthetised and a 0.5 mg 5-alpha-dihydrotestosterone pellet (21-day release) implanted subcutaneously into the scruff of each mouse to encourage tumour growth, and the wound was closed.
Once the implanted tumour volume reached between 100-200 mm (2-3 weeks) mice were allocated to their treatment groups. Treatment commenced on Day 17. The phytocannabinoid BDS was administered i.p. once daily at doses of 1, 10 & 100 mg/kg cannabinoid BDS for a further 25 days.
In a further experiment the chemotherapeutic agent taxotere (5 mg/kg) i.v. was administered weekly, alone or in combination with 100 mg/kg phytocannabinoid BDS.
Mice were evaluated daily by an experienced technician for 4-5 weeks. Tumour dimensions were recorded at day 7 (calliper measurement of length and width and tumour cross-sectional area and volume calculated) and recorded three times weekly and body weight measured weekly.

pIC50: −log10 of the molar value. Read-outs that look alike come from different tables or passages of the source.

As a reminder, the pIC50 is the negative decadic logarithm of the IC50, by convention in mol/L.

T1 sequence (Q9Y2T6 whole entry, species assumed): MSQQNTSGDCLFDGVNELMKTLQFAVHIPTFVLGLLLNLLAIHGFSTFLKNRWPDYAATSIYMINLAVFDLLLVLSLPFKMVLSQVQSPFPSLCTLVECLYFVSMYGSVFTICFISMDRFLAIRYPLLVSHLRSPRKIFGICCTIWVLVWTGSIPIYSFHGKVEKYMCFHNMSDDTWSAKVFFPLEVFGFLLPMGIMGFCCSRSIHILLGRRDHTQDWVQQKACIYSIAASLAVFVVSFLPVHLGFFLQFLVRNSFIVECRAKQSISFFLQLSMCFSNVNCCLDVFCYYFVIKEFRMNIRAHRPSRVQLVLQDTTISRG

On to `CCCCCc1cc(O)c2c(c1)OC(C)(C)[C@@H]1CCC(C)=C[C@@H]21` [THC, Tetrahydrocannabinol], for which, in series [1], the pIC50 was < 5.00. The “Cell Viability (%)” value in series [2] (cannabinoid 1 μM (each), Table 12.2) came to 115%; in series [2] (dose level 0.7 μM (each)) it was 100%; in series [2] (dose level 0.9 μM (each)), 92%; in series [2] (dose level 1.2 μM (each)), 80%. Besides, the “Tumour volume (increase from day 1)” value is recorded as 8.7 in [3] (dose level 3.7 mg/kg (each)), 8.5 in series [3] (dose level 7.5 mg/kg (each)) and 5.8 in series [3] (dose level 15.0 mg/kg). The “Median survival from the beginning of cannabinoid administration” value in series [4] is given as 24 weeks.
As to `C=C(C)[C@@H]1CCC(C)=C[C@H]1c1c(O)cc(CCCCC)cc1O` [CBD, Cannabidiol], the “Effect at GPR55” value in [5] is “Antagonist”. The pIC50 in series [6] (DU-145, 24 h) is 5.26; in series [6] (DU-145, 48 h), 5.31; in series [7] (24 h) it was 5.28; in series [7] (48 h) it was 5.25; in series [1], 5.30; in series [9] it was 5.05. In addition, in series [8], the “numbers of tumours per animal” value is reported as “significantly reduced the numbers of tumours per animal”. Further, the “Tumour volume (increase from day 1)” value in series [3] (dose level 3.7 mg/kg (each)) was determined as 9.1; in series [3] (dose level 7.5 mg/kg (each)), 8.9; in series [3] (dose level 15.0 mg/kg) it was 7.6. Also, the “growth of subcutaneously implanted U87 human glioma cells” value in [10] is “significantly inhibited the growth”.
On to `CC(=O)O[C@@]12CO[C@@H]1C[C@H](O)[C@@]1(C)C(=O)[C@H](O)C3=C(C)[C@@H](OC(=O)[C@H](O)[C@@H](NC(=O)OC(C)(C)C)c4ccccc4)C[C@@](O)([C@@H](OC(=O)c4ccccc4)[C@H]21)C3(C)C` [taxotere], for which the “growth rate and terminal tumour volume” value in series [11] was “significantly inhibited both growth rate and terminal tumour volume”.
